These are literature values, as cited in patent US20070191305A1, “Chromone complexes” (priority 2004, published 2007).

For data set [1] the following is noted: over the entire pH range.

As to `O=C1CCOc2ccccc21` [Example 4-chromanone, 4-chromanone], in the data set with keratinocyte cultures, the cell differentiation entry was “promotes cell differentiation” and the lipid production result is “stimulates lipid production”.
As to `O=c1c(O)c(-c2ccc(O)c(O)c2)oc2cc(O)cc(O)c12` [Quercetin, 3,3′,4′,5,7-pentahydroxyflavone], the “antioxidant activity amongst the hydroxyflavones investigated” value in data set [1] was “greatest activity”.
